Patent US10820591B2, “Substituted sulfonyl amides for controlling animal pests” (Bayer Aktiengesellschaft, priority 2016, dated 2020)

Each compound was assayed on Meloidogyne incognita (assay: Meloidogyne incognita test (sand, lettuce, gall formation)). Conditions: Meloidogyne incognita, 336 h, 20 ppm, after 14 days; read-out: nematicidal efficacy (formation of galls).
Format: in vivo
Protocol: Meloidogyne incognita Test [table] To produce a suitable active compound preparation, 1 part by weight of active compound is mixed with the stated amount of solvent and the concentrate is diluted to the desired concentration with water. Vessels are filled with sand, active compound solution, an egg/larvae suspension of the southern root-knot nematode (Meloidogyne incognita) and lettuce seeds. The lettuce seeds germinate and the plants develop. The galls develop on the roots. After 14 days, the nematicidal efficacy in % is determined by the formation of galls. 100% means that no galls were found; 0% means that the number of galls on the treated plants corresponds to the untreated control.
Compound `O=C(NS(=O)(=O)c1ccc(Cl)cc1)c1cn(Cc2c(F)cccc2F)cn1` [I-001] has a pest or weed control at 20 ppm of 90%.
In the case of `COc1ccc(Cl)c(S(=O)(=O)NC(=O)c2cn(Cc3c(F)cccc3F)cn2)c1` [I-002], the pest or weed control at 20 ppm is reported as 90%.
Compound `O=C(NS(=O)(=O)c1ccccc1Cl)c1cn(Cc2c(F)cccc2F)cn1` [I-003] has a pest or weed control at 20 ppm of 90%.
Work on `Cc1nc(C(=O)NS(=O)(=O)C(C)C)cn1-c1c(F)cccc1F` [I-005] yielded a pest or weed control at 20 ppm of 100%.
Compound `O=C(NS(=O)(=O)c1ccccc1Cl)c1ncn(CCC(F)(F)F)c1I` [I-008] has a pest or weed control at 20 ppm of 100%.
With `CC(C)S(=O)(=O)NC(=O)c1ncn(CCC(F)(F)F)c1Br` [I-009] the pest or weed control at 20 ppm was 90%.
For `O=C(NS(=O)(=O)c1ccccc1Cl)c1ncn(CCC(F)(F)F)c1Br` [I-011], the pest or weed control at 20 ppm was 70%.
Compound `O=C(NS(=O)(=O)c1ccc(Cl)cc1)c1ncn(CCC(F)(F)F)c1Cl` [I-012] has a pest or weed control at 20 ppm of 100%.
Compound `O=C(NS(=O)(=O)c1ccc(Cl)cc1Cl)c1ncn(CC(F)(F)F)c1Cl` [I-013] has a pest or weed control at 20 ppm of 70%.
Compound `O=C(NS(=O)(=O)c1ccc(Cl)cc1Cl)c1cn(CC(F)(F)F)cn1` [I-014] has a pest or weed control at 20 ppm of 90%.
`O=C(NS(=O)(=O)c1cc(Cl)ccc1Cl)c1ncn(CCC(F)(F)F)c1Cl` [I-015] gave a pest or weed control at 20 ppm of 90%.
With `O=C(NS(=O)(=O)c1c(Cl)cccc1Cl)c1ncn(CC(F)(F)F)c1Cl` [I-016] the pest or weed control at 20 ppm was 90%.
Compound `Cc1ccccc1S(=O)(=O)NC(=O)c1cn(CCC(F)(F)F)cn1` [I-017] has a pest or weed control at 20 ppm of 90%.
For `O=C(NS(=O)(=O)c1cccc(C(F)(F)F)c1)c1ncn(CCC(F)(F)F)c1Cl` [I-018], the pest or weed control at 20 ppm was 90%.
With `O=C(NS(=O)(=O)c1cccc(C(F)(F)F)c1)c1cn(CC(F)(F)F)cn1` [I-019] the pest or weed control at 20 ppm was 90%.
Work on `O=C(NS(=O)(=O)c1cccc(Cl)c1)c1ncn(CCC(F)(F)F)c1Cl` [I-020] yielded a pest or weed control at 20 ppm of 90%.
`O=C(NS(=O)(=O)c1ccc(C(F)(F)F)cc1)c1ncn(CCC(F)(F)F)c1Cl` [I-021] gave a pest or weed control at 20 ppm of 90%.
`Cc1ccc(S(=O)(=O)NC(=O)c2cn(CCC(F)(F)F)cn2)cc1` [I-022] showed a pest or weed control at 20 ppm of 90%.
Work on `Cc1ccc(S(=O)(=O)NC(=O)c2ncn(CC(F)(F)F)c2Cl)cc1` [I-023] yielded a pest or weed control at 20 ppm of 90%.
With `Cc1ccc(S(=O)(=O)NC(=O)c2cn(CC(F)(F)F)cn2)cc1` [I-024] the pest or weed control at 20 ppm was 90%.
Work on `O=C(NS(=O)(=O)c1ccc(Cl)cc1)c1cn(CC(F)(F)F)cn1` [I-025] yielded a pest or weed control at 20 ppm of 90%.
For `COc1ccc(S(=O)(=O)NC(=O)c2cn(CCC(F)(F)F)cn2)cc1` [I-026], the pest or weed control at 20 ppm was 90%.
With `COc1ccc(S(=O)(=O)NC(=O)c2cn(CC(F)(F)F)cn2)cc1` [I-027] the pest or weed control at 20 ppm was 90%.
Work on `O=C(NS(=O)(=O)Cc1ccccc1)c1ncn(CC(F)(F)F)c1Cl` [I-029] yielded a pest or weed control at 20 ppm of 70%.
For `O=C(NS(=O)(=O)c1ccc2c(c1Cl)OC(F)(F)O2)c1ncn(CCC(F)(F)F)c1Cl` [I-030], the pest or weed control at 20 ppm was 90%.
Compound `CC(=O)Oc1ccc(S(=O)(=O)NC(=O)c2ncn(CCC(F)(F)F)c2Cl)cc1` [I-031] has a pest or weed control at 20 ppm of 90%.
In the case of `O=C(NS(=O)(=O)c1ccc(OC(F)(F)F)cc1)c1ncn(CCC(F)(F)F)c1Cl` [I-033], the pest or weed control at 20 ppm is reported as 90%.
`CC(C)Oc1ccc(S(=O)(=O)NC(=O)c2ncn(CCC(F)(F)F)c2Cl)cc1` [I-034] showed a pest or weed control at 20 ppm of 90%.
In the case of `COc1cc(C)c(S(=O)(=O)NC(=O)c2ncn(CCC(F)(F)F)c2Cl)c(C)c1` [I-036], the pest or weed control at 20 ppm is reported as 100%.
`CCCn1cnc(C(=O)NS(=O)(=O)c2ccccc2)c1Cl` [I-038] showed a pest or weed control at 20 ppm of 90%.
Compound `CCCn1cnc(C(=O)NS(=O)(=O)c2ccc(OC)cc2)c1Cl` [I-039] has a pest or weed control at 20 ppm of 100%.
In the case of `CCCn1cnc(C(=O)NS(=O)(=O)c2ccccc2Cl)c1Cl` [I-040], the pest or weed control at 20 ppm is reported as 70%.
`CCCn1cnc(C(=O)NS(=O)(=O)c2cccc(Cl)c2)c1Cl` [I-041] gave a pest or weed control at 20 ppm of 100%.
With `CCCn1cnc(C(=O)NS(=O)(=O)c2cccc(OC)c2)c1Cl` [I-043] the pest or weed control at 20 ppm was 100%.
`CC(C)CCn1cnc(C(=O)NS(=O)(=O)c2ccccc2)c1Cl` [I-044] showed a pest or weed control at 20 ppm of 100%.
`COc1ccc(S(=O)(=O)NC(=O)c2ncn(CCC(C)C)c2Cl)cc1` [I-045] showed a pest or weed control at 20 ppm of 100%.
`CC(C)CCn1cnc(C(=O)NS(=O)(=O)c2ccc(Cl)cc2)c1Cl` [I-046] gave a pest or weed control at 20 ppm of 100%.
`COc1cccc(S(=O)(=O)NC(=O)c2ncn(CCC(C)C)c2Cl)c1` [I-047] was tested, and the pest or weed control at 20 ppm was 100%.
`COc1ccccc1S(=O)(=O)NC(=O)c1ncn(CCC(C)C)c1Cl` [I-048] was tested, and the pest or weed control at 20 ppm was 90%.
Work on `O=C(NS(=O)(=O)c1ccccc1)c1ncn(CCCCl)c1Cl` [I-049] yielded a pest or weed control at 20 ppm of 90%.
With `COc1ccc(S(=O)(=O)NC(=O)c2ncn(CCCCl)c2Cl)cc1` [I-050] the pest or weed control at 20 ppm was 90%.
Compound `O=C(NS(=O)(=O)c1cccc(Cl)c1)c1ncn(CCCCl)c1Cl` [I-051] has a pest or weed control at 20 ppm of 90%.
`O=C(NS(=O)(=O)c1ccc(Cl)cc1)c1ncn(CCCCl)c1Cl` [I-052] was tested, and the pest or weed control at 20 ppm was 90%.
`COc1cccc(S(=O)(=O)NC(=O)c2ncn(CCCCl)c2Cl)c1` [I-053] showed a pest or weed control at 20 ppm of 90%.
With `O=C(NS(=O)(=O)c1ccccc1)c1ncn(CCOC(F)(F)F)c1Cl` [I-054] the pest or weed control at 20 ppm was 90%.
Work on `COc1ccc(S(=O)(=O)NC(=O)c2ncn(CCOC(F)(F)F)c2Cl)cc1` [I-055] yielded a pest or weed control at 20 ppm of 90%.
Work on `O=C(NS(=O)(=O)c1cccc(Cl)c1)c1ncn(CCOC(F)(F)F)c1Cl` [I-056] yielded a pest or weed control at 20 ppm of 90%.
For `O=C(NS(=O)(=O)c1ccc(Cl)cc1)c1ncn(CCOC(F)(F)F)c1Cl` [I-057], the pest or weed control at 20 ppm was 100%.
Work on `COc1cccc(S(=O)(=O)NC(=O)c2ncn(CCOC(F)(F)F)c2Cl)c1` [I-058] yielded a pest or weed control at 20 ppm of 70%.
For `O=C(NS(=O)(=O)c1cccc(Cl)c1)c1ncn(C2CC2C(F)(F)F)c1Cl` (stereo not shown) [I-061], the pest or weed control at 20 ppm was 90%.
`O=C(NS(=O)(=O)c1ccc(Cl)cc1)c1ncn(C2CC2C(F)(F)F)c1Cl` (stereo not shown) [I-062] was tested, and the pest or weed control at 20 ppm was 90%.
For `COc1cccc(S(=O)(=O)NC(=O)c2ncn(C3CC3C(F)(F)F)c2Cl)c1` (stereo not shown) [I-063], the pest or weed control at 20 ppm was 100%.
In the case of `COc1ccccc1S(=O)(=O)NC(=O)c1ncn(C2CC2C(F)(F)F)c1Cl` (stereo not shown) [I-064], the pest or weed control at 20 ppm is reported as 100%.
Compound `O=C(NS(=O)(=O)c1cccc(Cl)c1)c1ncn(C2CCCC2C(F)(F)F)c1Cl` (stereo not shown) [I-065] has a pest or weed control at 20 ppm of 90%.
`O=C(NS(=O)(=O)c1ccc(Cl)cc1)c1ncn(C2CCCC2C(F)(F)F)c1Cl` (stereo not shown) [I-066] was tested, and the pest or weed control at 20 ppm was 90%.
Compound `COc1cccc(S(=O)(=O)NC(=O)c2ncn(C3CCCC3C(F)(F)F)c2Cl)c1` (stereo not shown) [I-067] has a pest or weed control at 20 ppm of 70%.
`COc1ccccc1S(=O)(=O)NC(=O)c1ncn(C2CCCC2C(F)(F)F)c1Cl` (stereo not shown) [I-068] was tested, and the pest or weed control at 20 ppm was 90%.
In the case of `CC(CC(F)(F)F)n1cnc(C(=O)NS(=O)(=O)c2ccccc2)c1Cl` (stereo not shown) [I-069], the pest or weed control at 20 ppm is reported as 100%.
`CC(CC(F)(F)F)n1cnc(C(=O)NS(=O)(=O)c2ccccc2Cl)c1Cl` (stereo not shown) [I-071] gave a pest or weed control at 20 ppm of 100%.
Compound `CC(CC(F)(F)F)n1cnc(C(=O)NS(=O)(=O)c2cccc(Cl)c2)c1Cl` (stereo not shown) [I-072] has a pest or weed control at 20 ppm of 100%.
For `COc1cccc(S(=O)(=O)NC(=O)c2ncn(C(C)CC(F)(F)F)c2Cl)c1` (stereo not shown) [I-074], the pest or weed control at 20 ppm was 100%.
`COc1ccccc1S(=O)(=O)NC(=O)c1ncn(C(C)CC(F)(F)F)c1Cl` (stereo not shown) [I-075] was tested, and the pest or weed control at 20 ppm was 70%.
Work on `COc1ccc(S(=O)(=O)NC(=O)c2ncn(CC(F)(F)C(F)(F)F)c2Cl)cc1` [I-076] yielded a pest or weed control at 20 ppm of 90%.
In the case of `O=C(NS(=O)(=O)c1ccccc1)c1ncn(CC(F)(F)C(F)(F)F)c1Cl` [I-077], the pest or weed control at 20 ppm is reported as 100%.
In the case of `O=C(NS(=O)(=O)c1ccc(Cl)cc1)c1ncn(CC(F)(F)C(F)(F)F)c1Cl` [I-078], the pest or weed control at 20 ppm is reported as 100%.
For `O=C(NS(=O)(=O)c1cccc(Cl)c1)c1ncn(CC(F)(F)C(F)(F)F)c1Cl` [I-079], the pest or weed control at 20 ppm was 100%.
With `O=C(NS(=O)(=O)c1ccccc1Cl)c1ncn(CC(F)(F)C(F)(F)F)c1Cl` [I-080] the pest or weed control at 20 ppm was 90%.
`COc1ccccc1S(=O)(=O)NC(=O)c1ncn(CC(F)(F)C(F)(F)F)c1Cl` [I-081] was tested, and the pest or weed control at 20 ppm was 90%.
With `COc1cccc(S(=O)(=O)NC(=O)c2ncn(CC(F)(F)C(F)(F)F)c2Cl)c1` [I-082] the pest or weed control at 20 ppm was 100%.
With `O=C(NS(=O)(=O)Cc1ccc(Cl)cc1)c1ncn(CCC(F)(F)F)c1Cl` [I-084] the pest or weed control at 20 ppm was 100%.
`O=C(NS(=O)(=O)c1cc(Cl)c(Cl)s1)c1ncn(CCC(F)(F)F)c1Cl` [I-086] was tested, and the pest or weed control at 20 ppm was 70%.
Compound `COc1cc(OC)cc(S(=O)(=O)NC(=O)c2ncn(CCC(F)(F)F)c2Cl)c1` [I-087] has a pest or weed control at 20 ppm of 70%.
`CCOc1ccc(S(=O)(=O)NC(=O)c2ncn(CCC(F)(F)F)c2Cl)cc1` [I-088] showed a pest or weed control at 20 ppm of 90%.
`CSc1ccc(S(=O)(=O)NC(=O)c2ncn(CCC(F)(F)F)c2Cl)cc1` [I-089] gave a pest or weed control at 20 ppm of 100%.
For `CCCCOc1ccc(S(=O)(=O)NC(=O)c2ncn(CCC(F)(F)F)c2Cl)cc1` [I-090], the pest or weed control at 20 ppm was 90%.
For `CC(=O)Nc1ccc(S(=O)(=O)NC(=O)c2ncn(CCC(F)(F)F)c2Cl)cc1` [I-091], the pest or weed control at 20 ppm was 90%.
In the case of `Cc1ccc(CS(=O)(=O)NC(=O)c2ncn(CCC(F)(F)F)c2Cl)cc1` [I-092], the pest or weed control at 20 ppm is reported as 70%.
For `Cc1ccccc1CS(=O)(=O)NC(=O)c1ncn(CCC(F)(F)F)c1Cl` [I-093], the pest or weed control at 20 ppm was 100%.
`O=C(NS(=O)(=O)c1ccc(Cl)s1)c1ncn(CCC(F)(F)F)c1Cl` [I-094] was tested, and the pest or weed control at 20 ppm was 90%.
`Cc1noc(C)c1S(=O)(=O)NC(=O)c1ncn(CCC(F)(F)F)c1Cl` [I-095] was tested, and the pest or weed control at 20 ppm was 90%.
`COc1cc(OC)nc(Oc2ccc(S(=O)(=O)NC(=O)c3ncn(CCC(F)(F)F)c3Cl)cc2)n1` [I-096] was tested, and the pest or weed control at 20 ppm was 90%.
Compound `O=C(NS(=O)(=O)c1cccs1)c1ncn(CCC(F)(F)F)c1Cl` [I-097] has a pest or weed control at 20 ppm of 90%.
